Test results as given in patent US8580769B2, “Treatment of obesity, metabolic syndrome, and diabetes with protein kinase C inhibitors” (The United States of America as represented by the …, priority 2011, dated 2013).

Assays:
human hepatocytes = assay: mRNA expression of lipogenic, inflammatory and glucogenic markers in human hepatocytes (RT-PCR); assay type: cell-based; conditions: for expression of G6 Pase / expression of PEPCK: hepatocytes of non-diabetic and T2DM humans, inhibitor alone or with insulin; for expression of ACC / expression of FAS / expression of IL-1β / expression of SREBP-1c / expression of TNF-α: hepatocytes of non-diabetic and/or T2DM humans
Method: After thawing, the hepatocytes were distributed (approximately 10^6 cells per 100 mm plate) and incubated approximately 16 hours overnight in Dulbecco's minimal essential medium containing 5% fetal calf serum, 100 units/ml sodium-penicillin, 100 μg/ml streptomycin-sulfate, 1 μM insulin and 2 μM dexamethasone. After washing, cells were incubated first for 2 hours in William's E medium (Sigma-Aldrich, St. Louis, Mo., catalog no. W1878) containing GLUTAMAX™ (Gibco/Invitrogen, Carlsbad, Calif.), 100 units/ml sodium-penicillin, 100 μg/ml streptomycin-sulfate, 10 μM insulin, 100 nM dexamethasone, and then for 2 hours in William's E medium containing 100 units/ml sodium penicillin, 100 μg/ml streptomycin-sulfate, 100 nM dexamethasone, 0.25 mg/ml transferrin, 0.25 μg/ml sodium selenite and 10 μM insulin. Cells were then washed and incubated for 3 hours in the same medium, but lacking insulin. Where indicated, an aPKC inhibitor was then added and incubation was continued for 30 min, after which, cells were treated either for 15 min with or without 100 nM insulin for acute signaling studies, […] After incubation, cells were sonicated in homogenizing buffer.
(§1) mRNA Measurements: As previously described (Sajan et al., J. Lipid Res. 50:1133-1145, 2009; Sajan et al., Diabetologia 52:1197-1207, 2009; Farese et al., J. Clin. Invest. 117:2289-2301, 2007), tissues were added to TRIZOL® reagent (Invitrogen) and RNA was extracted and purified with the RNEASY® Mini-Kit (Qiagen; Valencia, Calif.) and RNAase-free DNAase set (Qiagen) as per kit instructions, quantified by measuring A260/A280, further checked for purity by electrophoresis on 1.2% agarose gels, and mRNA quantified by quantitative real-time reverse transcriptase-polymerase chain reaction (RT-PCR). Reverse transcription was accomplished with TAQMAN® reverse transcription reagent from Applied Biosystems (Foster City, Calif., USA). mRNAs were measured with a SYBR® Green kit (Applied Biosystems) using the nucleotide primers shown in Table 1.

liver of Het-MλKO mice = assay: hepatic mRNA and nuclear NFκB levels in Het-MλKO mice; assay type: in vivo, mouse; conditions: for hepatic G6 Pase expression / hepatic PEPCK expression / hepatic SREBP-1c mRNA: s.c. once daily (ATM 60 mg/kg; ICAPP 0.4 mg/kg; ICAP 0.5 mg/kg); for hepatic ACC mRNA / hepatic FAS mRNA: 7-day treatment s.c. (ATM 60 mg/kg; ICAPP 0.4 mg/kg)
Source text: In Vivo Mouse Studies: Male wild type (WT) and heterozygous muscle-specific PKC-λ knockout (Het-MλKO) mice were generated as described (Farese et al., J. Clin. Invest. 117:2289-2301, 2007) and used at 6-12 months of age, when the O/MS/T2DM phenotype in MλKO mice is well-developed. Mice were housed in a temperature-controlled environment with alternating 12-hour light and dark cycles, and fed ad libitum with standard chow (Harlan Teklad 20/18 with 5% fat, (10% of calories from fat)). All experimental procedures in mice were approved by the Institutional Animal Care and Use Committees of the Roskamp Institute and the University of South Florida College of Medicine, and the James A. Haley Veterans Administration Medical Center Research and Development Committee, Tampa, Fla.
(ICAPP; prepared by Southern Research, Birmingham, Ala.) at 0.4 mg/kg body weight. On the morning of the eighth day of inhibitor treatment, mice were injected intraperitoneally (IP) with 0.9% saline or saline containing 1 U insulin/kg body weight 15 minutes before sacrifice, an optimal time for studies of insulin stimulation of aPKC and Akt in liver, muscle and adipose tissues (Standaert et al., J. Biol. Chem. 279:24929-24934, 2004; Sajan et al., J. Lipid Res. 50:1133-1145, 2009; Sajan et al., Diabetologia 52:1197-1207, 2009; Farese et al., J. Clin. Invest. 117:2289-2301, 2007). After killing, blood, liver, quadriceps muscle and abdominal adipose tissues were rapidly removed and homogenized in buffer with a POLYTRON® homogenizer.
as §1
Nuclear Preparations: As previously described (Sajan et al., J. Lipid Res. 50:1133-1145, 2009; Sajan et al., Diabetologia 52:1197-1207, 2009; Farese et al., J. Clin. Invest. 117:2289-2301, 2007), liver nuclei were prepared with NE-PER® Nuclear and Cytoplasmic Extraction Reagents (Pierce Biotechnology/Thermo Scientific, Waltham, Mass.; Cat. No. 78833) Levels of the active p65/RelA subunit of NFκB were measured in these nuclear preparations.

[1] = non-diabetic human hepatocytes, 6 hours, 100 nM insulin, 100 nM ICAP
[2] = liver of ICAP-treated Mλ-Het KO mice, relative to wild type = 1
[3] = Het-MλKO mice, ATM 60 mg/kg/day s.c., 7 days

Row | Compound | hepatic G6 Pase expression (liver of Het-MλKO mice; Het-MλKO mice) | hepatic PEPCK expression (liver of Het-MλKO mice; Het-MλKO mice) | hepatic SREBP-1c mRNA (liver of Het-MλKO mice; Het-MλKO mice) | expression of G6 Pase (human hepatocytes) | expression of PEPCK (human hepatocytes) | expression of ACC (human hepatocytes) | expression of FAS (human hepatocytes) | expression of IL-1β (human hepatocytes) | expression of SREBP-1c (human hepatocytes) | expression of TNF-α (human hepatocytes) | hepatic ACC mRNA (liver of Het-MλKO mice; Het-MλKO mice) | hepatic FAS mRNA (liver of Het-MλKO mice; Het-MλKO mice) | other results
1 | NC(=O)c1ncn([C@@H]2C[C@H](CO)[C@@H](O)[C@H]2O)c1N [ICAP, 1H-imidazole-4-carboxamide 5-amino-1-[2,3-dihydroxy-4-[hydroxymethyl]cyclopentyl]-[1R-(1α,2β,3β,4α)]] | decreased | decreased | decreased |  |  |  |  |  |  |  |  |  | effects on insulin-provoked aPKC activity and mRNA levels in hepatocytes of diabetic humans (human hepatocytes; hepatocytes of diabetic humans): Comparable results; insulin-provoked increase in ACC mRNA (human hepatocytes; [1]): inhibited; insulin-provoked increase in FAS mRNA (human hepatocytes; [1]): inhibited; insulin-provoked increase in IL-1β mRNA (human hepatocytes; [1]): inhibited; insulin-provoked increase in SREBP-1c mRNA (human hepatocytes; [1]): inhibited; insulin-provoked increase in TNF-α mRNA (human hepatocytes; [1]): inhibited; relative mRNA level, G6Pase (liver of Het-MλKO mice; [2]): 1.42; relative mRNA level, PEPCK (liver of Het-MλKO mice; [2]): 0.52; relative mRNA level, SREBP-1c (liver of Het-MλKO mice; [2]): 1.14
2 | NC(=O)c1ncn([C@@H]2C[C@H](COP(=O)(O)O)[C@@H](O)[C@H]2O)c1N [ICAPP, 1H-imidazole-4-carboxamide, 5-amino-1-[2,3-dihydroxy-4-[(phosphonooxy)methyl]cyclopentyl]-[1R-(1α,2β,3β,4α)]] | trended downward to or toward control levels | trended downward to or toward control levels | diminished to wild type levels | insulin-like, or enhanced insulin, effects | insulin-like, or enhanced insulin, effects | diminished | diminished | diminished | diminished | diminished | diminished to wild type levels | diminished to wild type levels | 
3 | O=C([O-])CC([S][Au])C(=O)[O-] (stereo not drawn) [ATM, aurothiomalate, reference compound] | diminished | diminished | decreased, virtually to normal | insulin-like, or enhanced insulin, effects | insulin-like, or enhanced insulin, effects | diminished | diminished | diminished | diminished | diminished | decreased, virtually to normal | decreased, virtually to normal | hepatic active nuclear NFκB/p65/RelA levels (liver of Het-MλKO mice; [3]): decreased, virtually to normal; hepatic expression of IL-1β (liver of Het-MλKO mice; [3]): normalized; hepatic expression of TNF-α (liver of Het-MλKO mice; [3]): normalized
